The target in the assay is T1, rat B1R (Rattus norvegicus, UniProt P97583).
T1 construct: expressed in transfected cells; host or cells: CHO K1 cells
T1 sequence (P97583 1-337): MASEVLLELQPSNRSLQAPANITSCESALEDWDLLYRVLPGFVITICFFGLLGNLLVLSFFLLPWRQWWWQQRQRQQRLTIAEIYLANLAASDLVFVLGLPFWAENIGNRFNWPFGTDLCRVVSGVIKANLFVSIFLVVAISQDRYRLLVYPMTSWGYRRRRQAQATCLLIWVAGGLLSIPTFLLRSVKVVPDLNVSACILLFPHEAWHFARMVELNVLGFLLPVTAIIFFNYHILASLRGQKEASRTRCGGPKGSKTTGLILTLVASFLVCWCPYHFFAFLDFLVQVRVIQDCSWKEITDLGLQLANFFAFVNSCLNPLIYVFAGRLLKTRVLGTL
Briefly: FLIPR Ca2+ functional study on bradykinin receptor 1 (rB1R CHO K1 cells). Type of assay: cell-based. As to conditions: for inhibition at 10 µM: CHO-K1, % inhibition rat B1R at 10 μM, read-out: % inh. (rat B1R) 10 μM; for % inh. (rat B1R) 10 μM: % inhibition rat B1R at 10 μM. Summed up:
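CHO K1 cells stably expressing human or rat B1R were loaded with Fluo-4 and read on FLIPR (ex 488/em 540 nm, peak counts). Test compound (10 μM, or a concentration range for IC50) was added first for % activation versus control agonist; after 10-20 min, EC80 Lys-Des-Arg9-bradykinin (human) or Des-Arg9-bradykinin (rat) was added, giving % inhibition of maximum. n=2-3, N≥2.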

Structures are written as SMILES.

Experimental findings from patent US8269000B2, “Substituted pyrimidine and triazine compounds” (Gruenenthal GmbH, priority 2008, dated 2012) are described below.

Turning to `COc1cc(C)c(S(=O)(=O)N(C)CCOc2nccc(N3CCC(c4ccccc4)(N(C)C)CC3)n2)c(C)c1` [G_CC-117, N-[2-[4-(4-dimethylamino-4-phenyl-piperidin-1-yl)-pyrimidin-2-yl]oxy-ethyl]-4-methoxy-N,2,6-trimethyl-benzenesulfonic acid amide], the inhibition at 10 µM was 56%. As to `COc1cc(C)c(S(=O)(=O)N2CCCCC2COc2ccnc(N3CCC(CCN4CCCCC4)CC3)n2)c(C)c1` (centres unmarked) [H_CC-022], the “% inh. (rat B1R) 10 μM” value is 77%. On to `COc1cc(C)c(S(=O)(=O)N2CCC[C@H]2COc2nccc(N3CCC4(CC3)C(=O)N(C)CC4c3ccc(F)cc3)n2)c(C)c1` (stereo partly drawn) [G_CC-050, 1-(4-fluorophenyl)-8-[2-[[(2S)-1-(4-methoxy-2,6-dimethylphenyl)sulfonyl-2-pyrrolidinyl]methoxy]-4-pyrimidinyl]-3-methyl-3,8-diazaspiro[4.5]decan-4-one], for which the inhibition at 10 µM was 73%. On the same count and under the same terms, next, `COc1cc(C)c(S(=O)(=O)N2c3ccccc3C[C@H]2COc2ccnc(N(C)CCN3CCC(c4ccccc4)(N(C)C)CC3)n2)c(C)c1` [H_CC-057, 2-(4-dimethylamino-4-phenyl-piperidin-1-yl)-ethyl-[4-[[(2S)-1-[(4-methoxy-2,6-dimethyl-phenyl)sulfonyl]-2,3-dihydro-1H-indol-2-yl]-methoxy]-pyrimidin-2-yl]-methyl-amine]: 98%; `CCCCC1(N(C)C)CCN(CCN(C)c2nccc(OC[C@@H]3CCCN3S(=O)(=O)c3c(C)cc(OC)cc3C)n2)CC1` [H_CC-056, 2-(4-butyl-4-dimethylamino-piperidin-1-yl)-ethyl-[4-[[(2S)-1-[(4-methoxy-2,6-dimethyl-phenyl)sulfonyl]-pyrrolidin-2-yl]-methoxy]-pyrimidin-2-yl]-methyl-amine]: 98%. As to `COc1cc(C)c(S(=O)(=O)N2CCCC(Oc3ccnc(N(C)CCCN4CCC(c5ccccc5)(N(C)C)CC4)n3)C2)c(C)c1` (centres unmarked) [H_CC-073, 3-(4-dimethylamino-4-phenyl-piperidin-1-yl)-propyl-[4-[1-[(4-methoxy-2,6-dimethyl-phenyl)sulfonyl]-piperidin-3-yl]oxy-pyrimidin-2-yl]-methyl-amine], the inhibition at 10 µM stood at 55%. Same read-out and setting: next, `COc1cc(C)c(S(=O)(=O)N2c3ccccc3C[C@H]2COc2nccc(N(C)CCCN3CCC(c4ccccc4)(N(C)C)CC3)n2)c(C)c1` [G_CC-076, 3-(4-dimethylamino-4-phenyl-piperidin-1-yl)-propyl-[2-[[(2S)-1-[(4-methoxy-2,6-dimethyl-phenyl)sulfonyl]-2,3-dihydro-1H-indol-2-yl]-methoxy]-pyrimidin-4-yl]-methyl-amine]: 105%. Take `COc1cc(C)c(S(=O)(=O)N2CCCCC2COc2ccnc(N3CCC(Oc4ccccn4)CC3)n2)c(C)c1` (centres unmarked) [H_CC-079, 4-[[1-[(4-methoxy-2,6-dimethyl-phenyl)sulfonyl]-piperidin-2-yl]-methoxy]-2-(4-pyridin-2-yloxy-piperidin-1-yl)-pyrimidine]: the inhibition at 10 µM came to 73%. The same measure, in the same setting: under `COc1cc(C)c(S(=O)(=O)N2CCCCC2COc2ccnc(N3CCN(C4CCN(C)CC4)CC3)n2)c(C)c1` (centres unmarked) [H_CC-001, 4-[[1-(4-methoxy-2,6-dimethylphenyl)sulfonyl-2-piperidinyl]methoxy]-2-[4-(1-methyl-4-piperidinyl)-1-piperazinyl]pyrimidine] stands 65%; under `COc1cc(C)c(S(=O)(=O)N2CCCCC2COc2nccc(N3CCCC3Cc3ccccn3)n2)c(C)c1` (centres unmarked) [G_CC-081, 2-[[1-[(4-methoxy-2,6-dimethyl-phenyl)sulfonyl]-piperidin-2-yl]-methoxy]-4-[2-(pyridin-2-yl-methyl)-pyrrolidin-1-yl]-pyrimidine], 88%.

Regarding `COc1cc(C)c(S(=O)(=O)N2CCC[C@H]2COc2ccnc(N3CCC(CCN4CCCCC4)CC3)n2)c(C)c1` [H_CC-026, 4-[[(2S)-1-(4-methoxy-2,6-dimethylphenyl)sulfonyl-2-pyrrlidinyl]methoxy]-2-[4-[2-(1-piperidyl)ethyl]-1-piperidinyl]pyrimidine], the “% inh. (rat B1R) 10 μM” value is 75%.
